Publication PMC10745061 (Marine Drugs, 2023)
Entries after “also recorded” stand apart in the source; their conditions may differ. Like-named read-outs stand apart in the source and are kept apart here. Where a SMILES comes first, the peptide text is derived from it. Bridges are numbered along the chain shown (N, C = ends).

Assays:
[1] = 25% human serum in PBS (pH 7.4) from healthy donor; conditions: 37 °C, up to 24 h
trypsin = trypsin in 100 mM Tris/HCl buffer (pH 8.0); conditions: 37 °C, up to 16 h
[2] = 25% human serum in PBS pH 7.4, 37 °C, RP-HPLC, ratio estimated from MALDI-TOF MS, two independent experiments
E. coli ATCC 25922 = conditions: BALB/c mice, n = 5, i.p. infection 10^6 CFU with 2.5% mucin; 10 mg/kg i.p. at 1 h and 4 h after infection; 7 days
[3] = test system: E. coli K12 SBS 1936 biofilm; experiment: Effect on established biofilm, MTT assay; format: cell-based, Escherichia coli; conditions: wide concentration range, 24 h pre-formed biofilm, 16 h treatment in LB, 37 °C
Experimental: Bacterial biofilms play an important role in UTIs, being responsible for their persistence. Therefore, the eradication of mature biofilms is an extremely challenging task because high concentrations or doses of antibacterial agents are required. Here, the ability of HfBRI-25 to disrupt established biofilms was evaluated as a number of viable bacteria in biofilm using the MTT assay. According to our previous data, E. coli K12 SBS 1936 was chosen as a strong biofilm-producer that can form it in different media.
E. coli K12 SBS1936 was grown in LB broth overnight at 37 °C and diluted in the same media to obtain 1 × 10^6 CFU/mL. A total of 100 μL of bacterial suspension was added to each well of the 96-well polystyrene plate and grown at 32 °C and 120 rpm for 24 h. The wells were washed twice with sterile water to remove non-adherent cells. In parallel, 100 μL of peptide or ciprofloxacin solutions, serially diluted in LB medium using a separate 96-well polystyrene plate, were added to each well with pre-formed biofilm and incubated at 37 °C and 180 rpm for 16 h. Biofilm viability was assessed by using the MTT reagent (Sigma). […] Absorbance of each well was measured at 570 nm. Bacterial survival was calculated as a percentage relative to samples without antimicrobial agent. […]

[4] = test system: human red blood cells (hRBCs); experiment: Hemolysis, hemoglobin release assay; format: cell-based
Experimental: Figure 3 Biological activity of the peptides towards human cells. (A) Hemolytic effect on human red blood cells (hRBCs) after 2 h incubation (the hemoglobin release assay). (B) Cytotoxicity towards transformed human embryonic kidney cells (HEK293T) after 16 h incubation (the resazurin assay).
The hemolytic activity of the peptides was tested against the fresh suspension of human red blood cells (hRBC) using the hemoglobin release assay, as described previously. Two experiments were performed with hRBC from blood samples of independent donors. The quantitative data are represented as average means with standard deviations. The cytotoxic effect of the peptides was tested on transformed human embryonic kidney cells (HEK293T) using the resazurin assay. The technique is based on the ability of live cell dehydrogenases to reduce a blue resazurin to pink and fluorescent resorufin. A total of 10^4 cells per well in Dulbecco’s modified Eagle’s medium (DMEM/F12) supplemented with 10% FBS were placed into 96-well plates for 24 h in the CO2-incubator (5% CO2, 37 °C). […] Fluorescence of the formed resorufin was measured with the microplate reader AF2200 (Eppendorf, Germany) using the following channel: λExc = 535 nm, λEm = 595 nm. The fluorescence signal in the wells containing cells cultured without the peptides was assumed to represent 100% cell viability. […]

RP-HPLC retention time = format: physicochemical; conditions: semi-preparative RP-HPLC, C18 column, linear gradient 5 to 80% (v/v) acetonitrile in water with 0.1% TFA within 50 min
Experimental: Figure 2 Structure analysis of the novel BRICHOS-related peptides HfBRI-25 and HfBRI-28. (A) Characteristics of the obtained peptides. ^1 Mean Kyte–Doolittle hydrophobicity index (GRAVY) was calculated using the Expasy ProtParam tool. The maximum and minimum values of this index are +4.5 and −4.5 for poly-Ile and poly-Arg sequences, respectively. ^2 Percentage of hydrophobic amino acids was calculated using the APD3 database. ^3 Retention times were measured using semi-preparative reversed-phase high-performance liquid chromatography (RP-HPLC) on a C18 column with a linear gradient from 5 to 80% (v/v) acetonitrile in water containing 0.1% trifluoroacetic acid (TFA) within 50 min. ^4 Molecular masses were calculated by considering the presence of four Cys residues forming two disulfide bonds in the case of HfBRI-25. ^5 Molecular masses were determined experimentally using MALDI-TOF mass spectrometry. (B) Spatial structures of HfBRI-25 and HfBRI-28 were modeled using the AlphaFold algorithm (ColabFold server). The top-rated models, according to predicted local distance difference test (pLDDT) scores, were visualized by the PyMOL software. (C) The CD-spectra of the peptides in water or in the presence of 30 mM DPC micelles. (D) The CONTINLL program was used for CD data analysis. […]

Escherichia coli ML-35p = conditions: salt-containing MHB supplemented with 5% FBS, compared with no FBS
Excerpt: The results were expressed as the median values determined on the basis of at least three independent experiments performed in triplicate.

[5] = test system: E. coli ML-35p cytoplasmic membrane; experiment: Cytoplasmic membrane permeabilization, ONPG hydrolysis; format: cell-based, Escherichia coli; conditions: at concentrations ≥ MIC values, PBS, 37 °C, ONPG 2.5 mM, OD405
Experimental: Cationic AMPs perform their antibacterial function by damaging membrane integrity and/or specifically inhibiting intracellular processes. In this study, an effect of the obtained peptides on bacterial cytoplasmic membrane integrity was analyzed with the use of E. coli ML-35p, the strain constitutively expressing β-galactosidase and lacking the functional lactose permease which is necessary for the uptake of o-nitrophenyl-β-D-galactoside (ONPG). When β-galactosidase cleaves ONPG, β-D-galactose and o-nitrophenol are released. The latter is a chromogenic product with absorbance at 405 nm. […] Thus, the rapid membranolytic mode of action seems to be predominant for the HfBRI-28 peptide.
Figure 4 Kinetics of changes in the E. coli ML35p cytoplasmic membrane permeability measured with the use of ONPG (OD405) hydrolysis caused by the examined peptides. Peptide concentrations (μM) are presented within the dashed box. […]
To examine the ability of the peptides to affect the barrier function of inner membrane of Gram-negative bacteria, we used the E. coli ML-35p strain constitutively expressing cytoplasmic β-galactosidase but lacking lactose permease. The state of the E. coli ML-35p cytoplasmic membrane was assessed based on its permeability to chromogenic marker o-nitrophenyl-β-D-galactopyranoside (ONPG, AppliChem), which is the β-galactosidase substrate. […]

## SPRGCFCVWISVNGRRVRRCWGSGC
[1]
  cleaved bond: Pro2-R3, major, 1 h
trypsin
  fragment found: (4–16), major; also recorded: (19–25), major

## CC[C@H](C)[C@@H]1NC(=O)[C@H](Cc2c[nH]c3ccccc23)NC(=O)[C@H](C(C)C)NC(=O)[C@@H]2CSSC[C@H](NC(=O)[C@H](CCCNC(=N)N)NC(=O)[C@H](CCCNC(=N)N)NC(=O)[C@H](C(C)C)NC(=O)[C@H](CCCNC(=N)N)NC(=O)[C@H](CCCNC(=N)N)NC(=O)CNC(=O)[C@H](CC(N)=O)NC(=O)[C@H](C(C)C)NC(=O)[C@H](CO)NC1=O)C(=O)N[C@@H](Cc1c[nH]c3ccccc13)C(=O)NCC(=O)N[C@@H](CO)C(=O)NCC(=O)N[C@H](C(=O)O)CSSC[C@H](NC(=O)CNC(=O)[C@@H](N)CCCNC(=N)N)C(=O)N[C@@H](Cc1ccccc1)C(=O)N2 [form “b”] (H-RGCFCVWISVNGRRVRRCWGSGC-OH; disulfide 3-23, 5-18; N-terminus and C-terminus assumed)
[2]; time 0 h
  a/b (%), ratio of the peptide forms in serum: 0%
[2]; time 1 h
  a/b (%), ratio of the peptide forms in serum: 61%
[2]; time 3 h
  a/b (%), ratio of the peptide forms in serum: 94%
[2]; time 24 h
  a/b (%), ratio of the peptide forms in serum: 100%

## O=C(O)c1cn(C2CC2)c2cc(N3CCNCC3)c(F)cc2c1=O [ciprofloxacin, reference compound]
E. coli ATCC 25922
  Survival / therapeutic efficacy: survival of all mice
[3]
  Anti-biofilm efficiency (bacterial viability inside established biofilm): high efficiency at a wide concentration range

## CC[C@H](C)[C@H](NC(=O)CNC(=O)[C@H](CCCCN)NC(=O)[C@H](Cc1c[nH]c2ccccc12)NC(=O)[C@@H](NC(=O)[C@H](CO)NC(=O)[C@H](CCCCN)NC(=O)[C@H](CC(C)C)NC(=O)[C@H](Cc1c[nH]c2ccccc12)NC(=O)CN)[C@@H](C)CC)C(=O)N[C@@H](CCCCN)C(=O)N[C@@H](CCCCN)C(=O)N[C@@H](C)C(=O)N[C@H](C(=O)N[C@@H](CCCCN)C(=O)N[C@@H](Cc1c[nH]c2ccccc12)C(=O)N[C@H](C(=O)N[C@@H](CC(C)C)C(=O)N[C@@H](CCCNC(=N)N)C(=O)N[C@@H](Cc1c[nH]cn1)C(=O)NCC(=O)N[C@H](C(=O)N[C@@H](Cc1ccc(O)cc1)C(=O)N[C@H](C(=O)N[C@@H](CCCNC(=N)N)C(=O)N[C@H](C(=O)N[C@H](C(=O)N[C@@H](Cc1ccccc1)C(=O)O)[C@@H](C)O)[C@@H](C)CC)C(C)C)C(C)C)C(C)C)C(C)C [HfBRI-28] (H-GWLKSIWKGIKKAVKWVLRHGVYVRITF-OH)
[4]
  Hemolytic effect on human red blood cells: strong hemolytic effect
RP-HPLC retention time
  RP-HPLC Retention Time: 40.5 min
Escherichia coli ML-35p
  Increase in MIC in the presence of serum: four- to eight-fold
[5]
  Membrane damage: effectively damaged membranes
